Consider 15 compounds from patent US20240409585A1, “MACROCYCLIC IMMUNOMODULATORS” (priority 2021, published 2024).

Each structure is given as a SMILES string. Bridge positions count the residues as written; N and C are the ends. Square brackets hold non-standard residues; d marks the D form. Peptide text beside a SMILES is read from it. * marks the point of attachment. Phe(4-NO2) = N[C@@H](Cc1ccc([N+](=O)[O-])cc1)C(=O)O; Phe(4-COOH) = N[C@@H](Cc1ccc(C(=O)O)cc1)C(=O)O; Phe(4-CH2NH2) = NCc1ccc(C[C@H](N)C(=O)O)cc1; Bip = N[C@@H](Cc1ccc(-c2ccccc2)cc1)C(=O)O; Phe(3-CN) = N#Cc1cccc(C[C@H](N)C(=O)O)c1; Phe(3-F) = N[C@@H](Cc1cccc(F)c1)C(=O)O; Phe(3-Me) = Cc1cccc(C[C@H](N)C(=O)O)c1; NMeY = CN[C@@H](Cc1ccc(O)cc1)C(=O)O; Val(3-OH) = CC(C)(O)[C@H](N)C(=O)O; 2Pal = N[C@@H](Cc1ccccn1)C(=O)O; 4Pal = N[C@@H](Cc1ccncc1)C(=O)O; 2Thi = N[C@@H](Cc1cccs1)C(=O)O; Cha = N[C@@H](CC1CCCCC1)C(=O)O; Cit = NC(=O)NCCC[C@H](N)C(=O)O; Carboxymethyl = O=C(O)C*; NMeA = CN[C@@H](C)C(=O)O; Nle = CCCC[C@H](N)C(=O)O; Orn = NCCC[C@H](N)C(=O)O; Dab = NCC[C@H](N)C(=O)O

The target of this experiment is T1, PE-labeled human PD-L1-Ig binding to Jurkat cell line over-expressing human PD-1 (Jurkat-PD-1) (Homo sapiens, UniProt Q15116).
T1 construct: expressed in transfected cells; host or cells: Jurkat
T1 sequence (Q15116 25-288): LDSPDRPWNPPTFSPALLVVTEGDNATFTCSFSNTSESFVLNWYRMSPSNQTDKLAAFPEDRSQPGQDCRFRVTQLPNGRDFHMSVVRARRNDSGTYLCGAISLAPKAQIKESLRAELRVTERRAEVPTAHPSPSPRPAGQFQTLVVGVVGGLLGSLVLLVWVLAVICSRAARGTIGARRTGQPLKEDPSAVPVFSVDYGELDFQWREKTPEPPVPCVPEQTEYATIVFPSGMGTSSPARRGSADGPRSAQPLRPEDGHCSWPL
Briefly: Jurkat-PD-1 Cell Binding High-Content Screening Assay (CBA): Method 1. The conditions noted are these: Jurkat-hPD-1 cells, PE-labeled PD-L1-Ig 20 nM final; read-out: Jurkat HPDL1 PD1 IC50 (uM) (Method 1).
The IC50 is the concentration at which inhibition is half-maximal. On to `CC(C)C[C@@H]1NC(=O)[C@H](CCCNC(=N)N)NC(=O)[C@@H](Cc2ccccc2)NC(=O)[C@H](C)N(C)C(=O)[C@H](CCCNC(=N)N)NC(=O)[C@H](Cc2ccc(-c3ccccc3)cc2)NC(=O)[C@H](C(C)C)NC(=O)[C@H](Cc2c[nH]c3ccccc23)NC(=O)[C@H](CC(=O)O)NC(=O)[C@H](Cc2ccc(O)cc2)NC(=O)[C@H](CCC(N)=O)NC(=O)CSC[C@@H](C(=O)NCC(N)=O)NC(=O)[C@H](CO)NC(=O)[C@H](C(C)C)NC1=O` [Compound 1023] ({CH2CO}-QYDWV[Bip]R[NMeA][dF]RLVSCG-NH2; thioether N-14), for which the IC50 was 0.14 µM. In the case of `CCCC[C@@H]1NC(=O)[C@H](CC(N)=O)NC(=O)[C@@H](C)NC(=O)[C@H](C)N(C)C(=O)[C@H](C(C)C)NC(=O)[C@H](Cc2ccc(-c3ccccc3)cc2)NC(=O)[C@H](CC(C)C)NC(=O)[C@H](Cc2c[nH]c3ccccc23)NC(=O)[C@H](CC(=O)O)NC(=O)[C@H](Cc2ccc(O)cc2)NC(=O)[C@H](Cc2ccccc2)NC(=O)CSC[C@@H](C(=O)N[C@@H](C)C(N)=O)NC(=O)[C@H]([C@@H](C)O)NC(=O)[C@H](CCCNC(=N)N)NC1=O` [Compound 1816] ({CH2CO}-FYDWL[Bip]V[NMeA][dA]N[Nle]RTCA-NH2; thioether N-14) it was 0.32 µM; in that of `Cc1cccc(C[C@@H]2NC(=O)[C@H](CC(=O)O)NC(=O)[C@H](Cc3ccc(OCC(=O)O)cc3)NC(=O)[C@H](Cc3ccncc3)NC(=O)CSC[C@@H](C(=O)N[C@@H](CCN)C(N)=O)NC(=O)[C@H](CCC(=O)O)NC(=O)[C@H](C(C)(C)O)NC(=O)[C@H](CC3CCCCC3)NC(=O)[C@H](CCN)NC(=O)[C@@H](CC(C)C)NC(=O)[C@H](C)N(C)C(=O)[C@H](Cc3ccc(C(=O)O)cc3)NC(=O)[C@H](Cc3ccc(-c4ccccc4)cc3)NC(=O)[C@H](Cc3ccc(C(=O)O)cc3)NC2=O)c1` [Compound 2196] ({CH2CO}-[4Pal]Y(Carboxymethyl)D[Phe(3-Me)][Phe(4-COOH)][Bip][Phe(4-COOH)][NMeA][dL][Dab][Cha][Val(3-OH)]EC[Dab]-NH2; thioether N-14), 0.02 µM; in that of `CC(C)C[C@@H]1NC(=O)[C@H](C)NC(=O)[C@@H](C)NC(=O)[C@H](C)N(C)C(=O)[C@H](CCC(=O)O)NC(=O)[C@H](Cc2ccc(-c3ccccc3)cc2)NC(=O)[C@H](CC(C)C)NC(=O)[C@H](Cc2c[nH]c3ccccc23)NC(=O)[C@H](CC(=O)O)NC(=O)[C@H](Cc2ccc(C(=O)O)cc2)NC(=O)[C@H](Cc2ccccc2)NC(=O)CSC[C@@H](C(=O)N[C@@H](C)C(N)=O)NC(=O)[C@H](CO)NC(=O)[C@H](C(C)C)NC1=O` [Compound 1773] ({CH2CO}-F[Phe(4-COOH)]DWL[Bip]E[NMeA][dA]ALVSCA-NH2; thioether N-14), 0.05 µM. With `CC(C)C[C@H]1NC(=O)[C@H](C)N(C)C(=O)[C@H](C(C)C)NC(=O)[C@H](Cc2ccc(-c3ccccc3)cc2)NC(=O)[C@H](C(C)C)NC(=O)[C@H](Cc2c[nH]c3ccccc23)NC(=O)[C@H](CC(=O)O)NC(=O)[C@H](Cc2ccc(CN)cc2)NC(=O)[C@H](Cc2ccc(OCC(=O)O)cc2)NC(=O)CSC[C@@H](C(N)=O)NC(=O)[C@H](CO)NC(=O)[C@H](C(C)C)NC(=O)[C@H](CC2CCCCC2)NC(=O)[C@H](CC(N)=O)NC1=O` [Compound 2243] ({CH2CO}-Y(Carboxymethyl)[Phe(4-CH2NH2)]DWV[Bip]V[NMeA][dL]N[Cha]VSC-NH2; thioether N-14) the figure was 0.02 µM; with `Cc1cccc(C[C@@H]2NC(=O)[C@H](CC(=O)O)NC(=O)[C@H](Cc3ccc(O)cc3)NC(=O)[C@H](CC(N)=O)NC(=O)CSC[C@@H](C(=O)N[C@H](C)C(N)=O)NC(=O)[C@H](CCC(=O)O)NC(=O)[C@H](C(C)C)NC(=O)[C@H](CC3CCCCC3)NC(=O)[C@H](CCN)NC(=O)[C@@H](CC(C)C)NC(=O)[C@H](C)N(C)C(=O)[C@H](CCCNC(N)=O)NC(=O)[C@H](Cc3ccc(-c4ccccc4)cc3)NC(=O)[C@H](C(C)(C)O)NC2=O)c1` [Compound 1710] ({CH2CO}-NYD[Phe(3-Me)][Val(3-OH)][Bip][Cit][NMeA][dL][Dab][Cha]VEC[dA]-NH2; thioether N-14), 0.11 µM. `CCNC(=O)[C@H](CCN)NC(=O)[C@@H]1CSCC(=O)N[C@@H](Cc2ccncc2)C(=O)N[C@@H](Cc2ccc(OCC(=O)O)cc2)C(=O)N[C@@H](CC(=O)O)C(=O)N[C@@H](Cc2cccc(C)c2)C(=O)N[C@@H](Cc2cccc(F)c2)C(=O)N[C@@H](Cc2ccc(-c3ccccc3)cc2)C(=O)N[C@@H](C(C)C)C(=O)N(C)[C@@H](C)C(=O)N[C@H](CC(C)C)C(=O)N[C@@H](CCN)C(=O)N[C@@H](CC2CCCCC2)C(=O)N[C@@H](C(C)(C)O)C(=O)N[C@@H](CO)C(=O)N1` [Compound 1838] ({CH2CO}-[4Pal]Y(Carboxymethyl)D[Phe(3-Me)][Phe(3-F)][Bip]V[NMeA][dL][Dab][Cha][Val(3-OH)]SC[Dab]-NHEt; thioether N-14): the IC50 was 0.01 µM. With `CC(C)C[C@@H]1NC(=O)[C@H](Cc2c[nH]c3ccccc23)NC(=O)[C@H](CC(=O)O)NC(=O)[C@H](Cc2ccc(O)cc2)NC(=O)[C@H](Cc2ccncc2)NC(=O)CSC[C@@H](C(=O)NCC(N)=O)NC(=O)[C@H](CO)NC(=O)[C@H](C(C)C)NC(=O)[C@H](CC(C)C)NC(=O)[C@H](CC(N)=O)NC(=O)[C@@H](C)NC(=O)[C@H](C)N(C)C(=O)[C@H](C(C)C)NC(=O)[C@H](Cc2ccc(-c3ccccc3)cc2)NC1=O` [Compound 1722] ({CH2CO}-[4Pal]YDWL[Bip]V[NMeA][dA]NLVSCG-NH2; thioether N-14) the figure was 0.01 µM; with `CC(C)C[C@@H]1NC(=O)[C@H](CCN)NC(=O)[C@@H](CC(C)C)NC(=O)[C@H](C)N(C)C(=O)[C@H](CCCNC(N)=O)NC(=O)[C@H](Cc2ccc(-c3ccccc3)cc2)NC(=O)[C@H](C(C)C)NC(=O)[C@H](Cc2c[nH]c3ccccc23)NC(=O)[C@H](CC(=O)O)NC(=O)[C@H](Cc2ccc(C(=O)O)cc2)NC(=O)[C@H](Cc2ccccn2)NC(=O)CSC[C@@H](C(=O)N[C@@H](C)C(N)=O)NC(=O)[C@H]([C@@H](C)O)NC(=O)[C@H](C(C)C)NC1=O` [Compound 1330] ({CH2CO}-[2Pal][Phe(4-COOH)]DWV[Bip][Cit][NMeA][dL][Dab]LVTCA-NH2; thioether N-14), 0.04 µM.

As for `CCNC(=O)[C@H](CCN)NC(=O)[C@@H]1CSCC(=O)N[C@@H](Cc2cccs2)C(=O)N[C@@H](Cc2cccc(C#N)c2)C(=O)N[C@@H](CC(=O)O)C(=O)N[C@@H](Cc2cccc(C)c2)C(=O)N[C@@H](Cc2cccc(F)c2)C(=O)N[C@@H](Cc2ccc(-c3ccccc3)cc2)C(=O)N[C@@H](C(C)C)C(=O)N(C)[C@@H](C)C(=O)N[C@H](CC(C)C)C(=O)N[C@@H](CCN)C(=O)N[C@@H](CC2CCCCC2)C(=O)N[C@@H](C(C)(C)O)C(=O)N[C@@H](CO)C(=O)N1` [Compound 1840] ({CH2CO}-[2Thi][Phe(3-CN)]D[Phe(3-Me)][Phe(3-F)][Bip]V[NMeA][dL][Dab][Cha][Val(3-OH)]SC[Dab]-NHEt; thioether N-14), the concentration for half-maximal inhibition (IC50) was 0.05 µM. On to `CC(C)C[C@@H]1NC(=O)[C@H](CCN)NC(=O)[C@@H](CC(C)C)NC(=O)[C@H](C)N(C)C(=O)[C@H](CCCNC(=N)N)NC(=O)[C@H](Cc2ccc(-c3ccccc3)cc2)NC(=O)[C@H](C(C)C)NC(=O)[C@H](Cc2c[nH]c3ccccc23)NC(=O)[C@H](CC(=O)O)NC(=O)[C@H](Cc2ccc(O)cc2)NC(=O)[C@H](CCC(N)=O)NC(=O)CSC[C@@H](C(=O)N[C@@H](C)C(N)=O)NC(=O)[C@H]([C@@H](C)O)NC(=O)[C@H](C(C)C)NC1=O` [Compound 1056] ({CH2CO}-QYDWV[Bip]R[NMeA][dL][Dab]LVTCA-NH2; thioether N-14), for which the 50% inhibitory concentration (IC50) was 0.06 µM.

As to `CC(C)C[C@@H]1NC(=O)[C@H](CCN)NC(=O)[C@@H](CC(C)C)NC(=O)[C@H](C)N(C)C(=O)[C@H](CCCNC(=N)N)NC(=O)[C@H](Cc2ccc(-c3ccccc3)cc2)NC(=O)[C@H](C(C)C)NC(=O)[C@H](Cc2c[nH]c3ccccc23)NC(=O)[C@H](CC(=O)O)NC(=O)[C@H](Cc2ccc([N+](=O)[O-])cc2)NC(=O)[C@H](CC(N)=O)NC(=O)CSC[C@@H](C(=O)N[C@@H](C)C(N)=O)NC(=O)[C@H]([C@@H](C)O)NC(=O)[C@H](C(C)C)NC1=O` [Compound 1188] ({CH2CO}-N[Phe(4-NO2)]DWV[Bip]R[NMeA][dL][Dab]LVTCA-NH2; thioether N-14), the IC50 is 0.09 µM.

Take `CC(C)C[C@@H]1NC(=O)[C@H](CCCN)NC(=O)[C@@H](CC(C)C)NC(=O)[C@H](C)N(C)C(=O)[C@H](CCC(=O)O)NC(=O)[C@H](Cc2ccc(-c3ccccc3)cc2)NC(=O)[C@H](C(C)C)NC(=O)[C@H](Cc2c[nH]c3ccccc23)NC(=O)[C@H](CC(=O)O)NC(=O)[C@H](Cc2ccc(O)cc2)NC(=O)[C@H](Cc2ccccc2)NC(=O)CSC[C@@H](C(=O)N[C@@H](CCC(=O)O)C(N)=O)NC(=O)[C@H]([C@@H](C)O)NC(=O)[C@H](C(C)C)NC1=O` [Compound 1163] ({CH2CO}-FYDWV[Bip]E[NMeA][dL][Orn]LVTCE-NH2; thioether N-14): the IC50 worked out at 0.04 µM. With `CC(C)C[C@@H]1NC(=O)[C@H](CCN)NC(=O)[C@@H](CC(C)C)NC(=O)[C@H](Cc2ccc(O)cc2)N(C)C(=O)[C@H](C(C)C)NC(=O)[C@H](Cc2ccc(-c3ccccc3)cc2)NC(=O)[C@H](C(C)C)NC(=O)[C@H](Cc2c[nH]c3ccccc23)NC(=O)[C@H](CC(=O)O)NC(=O)[C@H](Cc2ccc(O)cc2)NC(=O)[C@H](CC(N)=O)NC(=O)CSC[C@@H](C(=O)N[C@@H](C)C(N)=O)NC(=O)[C@H]([C@@H](C)O)NC(=O)[C@H](C(C)C)NC1=O` [Compound 1364] ({CH2CO}-NYDWV[Bip]V[NMeY][dL][Dab]LVTCA-NH2; thioether N-14) the figure was 0.01 µM; with `CC(C)C[C@@H]1NC(=O)[C@H](Cc2c[nH]c3ccccc23)NC(=O)[C@H](CC(=O)O)NC(=O)[C@H](Cc2ccc(O)cc2)NC(=O)[C@H](Cc2ccccc2)NC(=O)CSC[C@@H](C(=O)NCC(N)=O)NC(=O)[C@H](CO)NC(=O)[C@H](C(C)C)NC(=O)[C@H](CC(C)C)NC(=O)[C@H](CC(N)=O)NC(=O)[C@H](CCC(N)=O)NC(=O)[C@H](C)N(C)C(=O)[C@H](C(C)C)NC(=O)[C@H](Cc2ccc(-c3ccccc3)cc2)NC1=O` [Compound 1811] ({CH2CO}-FYDWL[Bip]V[NMeA]QNLVSCG-NH2; thioether N-14), 0.28 µM.
